Measurements taken from patent publication US8168651B2, “Protein kinase modulators” (Cylene Pharmaceuticals, Inc., priority 2008, dated 2012).

Assays:
[1] = target: each individual kinase of the panel (Homo sapiens, UniProt O00418); test: Standardized radiometric kinase assays, percentage of activity at 0.5 μM;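 further: Read-out is ³³P-labelled substrate protein phosphorylated by each kinase, captured on filters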
[2] = target: each individual kinase of the panel (Homo sapiens, UniProt O43318); test: as above
[3] = target: each individual kinase of the panel (Homo sapiens, UniProt O96017); test: as above
[4] = target: each individual kinase of the panel (Homo sapiens, UniProt O96017, I157T); test: as above
[5] = target: each individual kinase of the panel (Homo sapiens, UniProt O96017, R145W); test: as above
[6] = target: each individual kinase of the panel (Homo sapiens, UniProt P05129); test: as above
[7] = target: each individual kinase of the panel (Homo sapiens, UniProt P07948); test: as above
[8] = target: each individual kinase of the panel (Homo sapiens, UniProt P19784); test: as above
[9] = target: each individual kinase of the panel (Homo sapiens, UniProt P29322); test: as above
Chain of each individual kinase of the panel (Homo sapiens, UniProt P29322) (P29322 28-1005 limits assumed): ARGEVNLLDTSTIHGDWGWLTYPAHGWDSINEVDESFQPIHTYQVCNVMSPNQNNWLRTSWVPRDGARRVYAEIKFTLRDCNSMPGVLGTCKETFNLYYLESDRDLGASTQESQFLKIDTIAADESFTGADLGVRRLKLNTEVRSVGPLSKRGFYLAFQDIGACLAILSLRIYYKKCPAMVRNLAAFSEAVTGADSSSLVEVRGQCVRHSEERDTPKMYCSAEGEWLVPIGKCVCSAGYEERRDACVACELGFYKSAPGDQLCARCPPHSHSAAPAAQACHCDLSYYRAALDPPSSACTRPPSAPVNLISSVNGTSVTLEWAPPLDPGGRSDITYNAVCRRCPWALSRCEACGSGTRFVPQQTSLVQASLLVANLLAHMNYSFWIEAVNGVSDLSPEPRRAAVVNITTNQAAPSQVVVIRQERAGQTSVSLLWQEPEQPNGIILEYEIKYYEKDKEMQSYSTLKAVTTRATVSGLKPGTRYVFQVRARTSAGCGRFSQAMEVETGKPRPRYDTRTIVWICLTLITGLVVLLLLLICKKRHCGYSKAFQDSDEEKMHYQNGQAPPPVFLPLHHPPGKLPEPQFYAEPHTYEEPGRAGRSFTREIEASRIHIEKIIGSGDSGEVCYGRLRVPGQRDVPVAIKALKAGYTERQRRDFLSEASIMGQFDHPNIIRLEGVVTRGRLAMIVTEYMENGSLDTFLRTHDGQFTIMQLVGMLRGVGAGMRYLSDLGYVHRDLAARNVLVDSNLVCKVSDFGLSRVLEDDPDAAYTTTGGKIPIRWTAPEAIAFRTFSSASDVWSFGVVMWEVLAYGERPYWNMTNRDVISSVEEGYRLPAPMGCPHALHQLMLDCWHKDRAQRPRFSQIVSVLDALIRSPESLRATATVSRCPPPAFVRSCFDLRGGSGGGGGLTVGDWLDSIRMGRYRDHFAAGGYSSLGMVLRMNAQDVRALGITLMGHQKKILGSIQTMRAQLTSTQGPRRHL

[10] = target: each individual kinase of the panel (Homo sapiens, UniProt P34947); test: as above
[11] = target: each individual kinase of the panel (Homo sapiens, UniProt P43250); test: as above
[12] = target: each individual kinase of the panel (Homo sapiens, UniProt P52333); test: as above
[13] = target: each individual kinase of the panel (Homo sapiens, UniProt P53778); test: as above
[14] = target: each individual kinase of the panel (Homo sapiens, UniProt P80192); test: as above
[15] = target: each individual kinase of the panel (Homo sapiens, UniProt Q04759); test: as above
[16] = target: each individual kinase of the panel (Homo sapiens, UniProt Q12866); test: as above
Chain of each individual kinase of the panel (Homo sapiens, UniProt Q12866) (Q12866 21-999 limits assumed): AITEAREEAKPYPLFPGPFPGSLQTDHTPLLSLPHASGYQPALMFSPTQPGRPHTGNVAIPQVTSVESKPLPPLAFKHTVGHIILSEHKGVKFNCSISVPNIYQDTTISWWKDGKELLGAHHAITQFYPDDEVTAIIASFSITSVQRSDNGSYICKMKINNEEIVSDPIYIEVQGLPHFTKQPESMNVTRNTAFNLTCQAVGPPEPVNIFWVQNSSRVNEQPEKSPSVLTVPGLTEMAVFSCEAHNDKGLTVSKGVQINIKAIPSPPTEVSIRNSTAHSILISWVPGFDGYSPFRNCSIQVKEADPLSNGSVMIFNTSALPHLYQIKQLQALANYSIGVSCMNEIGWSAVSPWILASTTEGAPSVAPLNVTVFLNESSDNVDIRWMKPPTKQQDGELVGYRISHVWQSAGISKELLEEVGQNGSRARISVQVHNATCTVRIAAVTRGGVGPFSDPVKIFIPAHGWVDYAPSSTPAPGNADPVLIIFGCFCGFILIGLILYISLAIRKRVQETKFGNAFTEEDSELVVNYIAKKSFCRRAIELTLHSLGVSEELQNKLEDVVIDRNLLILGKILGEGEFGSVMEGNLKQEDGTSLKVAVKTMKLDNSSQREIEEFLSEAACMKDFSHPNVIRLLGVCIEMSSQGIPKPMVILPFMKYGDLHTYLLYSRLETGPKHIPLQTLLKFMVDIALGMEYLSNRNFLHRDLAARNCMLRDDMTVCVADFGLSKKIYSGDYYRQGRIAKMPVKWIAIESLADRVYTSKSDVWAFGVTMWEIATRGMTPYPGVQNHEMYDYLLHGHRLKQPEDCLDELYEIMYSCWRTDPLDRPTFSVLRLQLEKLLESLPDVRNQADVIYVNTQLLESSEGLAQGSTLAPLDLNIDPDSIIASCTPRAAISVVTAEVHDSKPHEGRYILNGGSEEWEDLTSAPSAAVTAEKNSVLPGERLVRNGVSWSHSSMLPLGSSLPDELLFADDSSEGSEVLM

[17] = target: each individual kinase of the panel (Homo sapiens, UniProt Q13237); test: as above
Chain of each individual kinase of the panel (Homo sapiens, UniProt Q13237) (Q13237 2-762 limits assumed): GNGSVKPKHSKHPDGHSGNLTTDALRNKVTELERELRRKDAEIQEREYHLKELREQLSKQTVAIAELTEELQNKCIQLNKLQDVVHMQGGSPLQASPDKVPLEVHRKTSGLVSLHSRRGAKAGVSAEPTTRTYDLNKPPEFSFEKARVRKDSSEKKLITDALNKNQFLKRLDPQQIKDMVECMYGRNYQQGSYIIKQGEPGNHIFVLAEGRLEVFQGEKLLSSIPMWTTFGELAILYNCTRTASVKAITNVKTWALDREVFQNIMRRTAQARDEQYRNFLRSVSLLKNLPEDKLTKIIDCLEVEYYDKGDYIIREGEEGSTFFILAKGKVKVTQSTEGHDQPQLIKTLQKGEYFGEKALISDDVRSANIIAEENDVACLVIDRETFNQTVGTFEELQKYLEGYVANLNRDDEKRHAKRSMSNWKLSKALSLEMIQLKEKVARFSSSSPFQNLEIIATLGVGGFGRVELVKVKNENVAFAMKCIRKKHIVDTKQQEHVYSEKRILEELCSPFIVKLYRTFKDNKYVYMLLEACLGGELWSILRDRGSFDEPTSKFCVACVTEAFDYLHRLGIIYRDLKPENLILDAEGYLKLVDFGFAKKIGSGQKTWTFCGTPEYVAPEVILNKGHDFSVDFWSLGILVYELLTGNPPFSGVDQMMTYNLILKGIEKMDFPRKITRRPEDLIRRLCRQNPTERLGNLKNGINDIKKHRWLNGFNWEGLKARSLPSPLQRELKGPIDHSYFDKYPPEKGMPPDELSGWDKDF

[18] = target: each individual kinase of the panel (Homo sapiens, UniProt Q16620); test: as above
Chain of each individual kinase of the panel (Homo sapiens, UniProt Q16620) (Q16620 32-822 limits assumed): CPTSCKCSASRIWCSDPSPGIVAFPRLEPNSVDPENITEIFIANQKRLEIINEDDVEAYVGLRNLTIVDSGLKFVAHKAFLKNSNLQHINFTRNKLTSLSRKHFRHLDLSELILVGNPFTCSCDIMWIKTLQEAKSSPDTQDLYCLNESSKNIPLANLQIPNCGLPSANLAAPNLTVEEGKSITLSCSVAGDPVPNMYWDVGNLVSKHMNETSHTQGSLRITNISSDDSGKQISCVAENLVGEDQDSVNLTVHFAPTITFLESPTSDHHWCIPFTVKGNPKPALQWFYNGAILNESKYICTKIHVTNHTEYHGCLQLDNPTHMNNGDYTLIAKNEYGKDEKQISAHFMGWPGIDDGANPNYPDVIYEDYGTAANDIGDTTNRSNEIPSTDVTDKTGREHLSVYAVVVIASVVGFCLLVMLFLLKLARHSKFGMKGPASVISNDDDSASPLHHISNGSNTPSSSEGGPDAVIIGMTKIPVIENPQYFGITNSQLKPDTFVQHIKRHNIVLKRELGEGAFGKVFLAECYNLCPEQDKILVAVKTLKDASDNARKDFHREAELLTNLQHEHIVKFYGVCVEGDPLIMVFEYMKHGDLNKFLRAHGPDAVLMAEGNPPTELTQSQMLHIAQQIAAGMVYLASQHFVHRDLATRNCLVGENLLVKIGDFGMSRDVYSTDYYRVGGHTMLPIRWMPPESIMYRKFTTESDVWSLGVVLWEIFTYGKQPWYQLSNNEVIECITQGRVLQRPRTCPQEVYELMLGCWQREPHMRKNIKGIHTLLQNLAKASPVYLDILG

[19] = target: each individual kinase of the panel (Homo sapiens, UniProt Q86Y07); test: as above
[20] = target: each individual kinase of the panel (Homo sapiens, UniProt Q96PF2); test: as above
[21] = target: each individual kinase of the panel (Homo sapiens, UniProt Q96RG2); test: as above
[22] = target: each individual kinase of the panel (Homo sapiens, UniProt Q9BXA7); test: as above
[23] = target: each individual kinase of the panel (Homo sapiens, UniProt Q9HBH9); test: as above
[24] = target: each individual kinase of the panel (Homo sapiens, UniProt Q9HBY8); test: as above
[25] = target: each individual kinase of the panel (Homo sapiens, UniProt Q9Y3S1); test: as above
[26] = target: each individual kinase of the panel (Mus musculus, UniProt P16277); test: as above
Chain of each individual kinase of the panel (Mus musculus, UniProt P16277) (P16277 2-499 limits assumed): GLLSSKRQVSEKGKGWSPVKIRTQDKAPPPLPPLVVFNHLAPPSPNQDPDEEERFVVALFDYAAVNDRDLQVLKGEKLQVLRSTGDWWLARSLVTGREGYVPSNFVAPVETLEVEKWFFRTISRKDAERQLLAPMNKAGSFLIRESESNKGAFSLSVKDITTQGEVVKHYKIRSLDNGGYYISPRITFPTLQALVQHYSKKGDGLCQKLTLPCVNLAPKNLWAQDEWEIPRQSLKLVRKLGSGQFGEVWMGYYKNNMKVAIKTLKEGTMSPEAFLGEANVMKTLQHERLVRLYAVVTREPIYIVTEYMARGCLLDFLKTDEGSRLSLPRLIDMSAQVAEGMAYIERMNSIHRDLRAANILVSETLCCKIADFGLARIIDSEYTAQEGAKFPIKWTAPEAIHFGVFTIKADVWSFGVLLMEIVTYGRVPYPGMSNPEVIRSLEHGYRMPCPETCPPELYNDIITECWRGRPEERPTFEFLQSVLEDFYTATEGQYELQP

[27] = Pharmacokinetics after IV and PO dose in SD rats; type: in vivo
Method: (§1) The pharmacokinetics properties of drugs were also investigated in SD rats and beagle dogs following an intravenous (IV) bolus and oral (PO) doses of drug using similar methods. Blood samples were collected at predetermined times and the plasma separated.
(§2) Drug levels were quantified by the LC/MS/MS method described below. Noncompartmental pharmacokinetic analysis was applied for intravenous administration. […] The terminal t1/2 and C0 were calculated using the last three and the first three data points, respectively
(§3) Bioanalysis was performed using a Quattro Micro LC/MS/MS instrument in the MRM detection mode, with an internal standard (IS). Briefly, 15 µL plasma samples were prepared for analysis using protein precipitation with 120 μL of acetonitrile. The supernatants were transferred into a 96 well plate and subjected to LC-MS/MS analysis using a Phenomenex Polar-RP HPLC column. The mobile phases were 10 mM NH4HCO3 in water (Solution-A) and 10 mM NH4HCO3 in methanol (Solution-B). […] Quantitation of the analytes was performed in the batch mode with two bracketing calibration curves according to the bioanalytical sample list.

[28] = Pharmacokinetics after IV and PO dose in beagle dogs; type: in vivo; conditions: Dog
Method: as §1, §2, §3

MiaPaca xenografts = test: Tumor suppression in MiaPaca xenograft mice; type: in vivo, NCr nu/nu mice
Method: (§4) Animals were handled under laminar-flow hoods.
Tumor volume measurements (FIG. 3A) and body weight (FIG. 3B) were recorded on days 3, 6, 8, 10, 13 and 15.
Gemzar™ administered at a dose of 80 mg/kg IP Q3D was used as a positive control.

[29] = test system: BX-PC3 (human pancreatic cancer cells) xenograft; test: Tumor suppression in BX-PC3 xenograft mice; type: in vivo; conditions: BC-PC3 xenograft; 60 mg/kg QD IV, 50 mg/kg BID IV or 100 mg/kg BID IP
MDA-MB-231 xenografts = test: Tumor suppression in MDA-MB-231 xenograft animals; type: in vivo, mice; conditions: IV 30 and 60 mg/kg and oral 200 mg/kg
Text: as §4

[30] = Body weight of tumor-bearing xenograft animals; type: in vivo, mice; conditions: BC-PC3 xenograft; IV or IP dosing, days 1-18
[31] = Tumor pharmacokinetic studies, IV QDx6; type: in vivo, mice; conditions: 30 mg/kg IV QD×6
HUVEC cells = test: Human endothelial tube formation assay (BD BioCoat Angiogenesis System); type: cell-based; conditions: 18 hrs
[32] = Sprague-Dawley, rat, plasma, PO 8.06 mg/kg, SD-Rats

Chain of each individual kinase of the panel (Homo sapiens, UniProt O00418) (O00418 2-725 limits assumed): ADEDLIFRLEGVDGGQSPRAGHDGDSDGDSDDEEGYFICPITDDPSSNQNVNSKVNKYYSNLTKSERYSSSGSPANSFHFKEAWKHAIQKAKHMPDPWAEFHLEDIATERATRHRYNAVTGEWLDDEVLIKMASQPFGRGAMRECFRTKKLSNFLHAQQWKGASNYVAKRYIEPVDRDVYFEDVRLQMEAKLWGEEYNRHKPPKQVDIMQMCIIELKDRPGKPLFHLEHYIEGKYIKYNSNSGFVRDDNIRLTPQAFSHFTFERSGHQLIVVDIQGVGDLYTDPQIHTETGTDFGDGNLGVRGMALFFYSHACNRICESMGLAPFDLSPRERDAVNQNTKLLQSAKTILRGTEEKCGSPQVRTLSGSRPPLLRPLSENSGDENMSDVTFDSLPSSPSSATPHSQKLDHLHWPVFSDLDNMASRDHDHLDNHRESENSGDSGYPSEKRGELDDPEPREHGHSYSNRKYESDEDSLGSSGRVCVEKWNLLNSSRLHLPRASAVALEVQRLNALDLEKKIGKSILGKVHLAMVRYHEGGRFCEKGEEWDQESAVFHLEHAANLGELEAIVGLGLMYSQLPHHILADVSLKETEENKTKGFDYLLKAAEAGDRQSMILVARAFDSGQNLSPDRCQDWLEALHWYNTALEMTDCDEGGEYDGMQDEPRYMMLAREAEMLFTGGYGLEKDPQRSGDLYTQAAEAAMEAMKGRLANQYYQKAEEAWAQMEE

## O=C(O)c1ccc2c(c1)nc(Nc1cccc(Cl)c1)c1ccncc12 [drawing 1136]
[1]
  eEF−2K(h) percentage of activity: 3%
[2]
  TAK1 percentage of activity: 4%
[3]
  CHK2 percentage of activity: 20%
[4]
  CHK2(1157T) (h) percentage of activity: 15%
[5]
  CHK2(R145W) (h) percentage of activity: 6%
[6]
  PRKCG percentage of activity: 6%
[7]
  LYN percentage of activity: 13%
[8]
  CK2 alpha 2 percentage of activity: 103%
[9]
  EPHA8 percentage of activity: −10%
[10]
  GRK5 percentage of activity: 74%
[11]
  GRK6 percentage of activity: 44%
[12]
  JAK3 percentage of activity: 37%
[13]
  p38-gamma percentage of activity: 21%
[14]
  MLK1 percentage of activity: 43%
[15]
  PRKCT percentage of activity: −3%
[16]
  MER percentage of activity: 82%
[17]
  PRKG2 percentage of activity: −10%
[18]
  TRKB percentage of activity: 24%
[19]
  VRK2 percentage of activity: −3%
[20]
  TSSK2 percentage of activity: −11%
[21]
  PASK percentage of activity: 85%
[22]
  TSSK1 percentage of activity: −12%
[23]
  Mnk2 percentage of activity: 79%
[24]
  SGK2 percentage of activity: 4%
[25]
  WNK2 percentage of activity: 4%
[26]
  Blk(m) percentage of activity: 14%

## C#Cc1cccc(Nc2nc3cc(C(=O)O)ccc3c3cncnc23)c1 [Compound A2]
[27]; IV 1.56 mg/kg, SD Rats
  AUC(0-12 h): 39194 ng · h · mI^−1
  AUC(0-Inf): 36659 ng · h · mI^−1
  CLs: 1.7 mL/min/kg
  Cp0-exp: 47935 ng/mL
  Kel: 0.1215 h⁻¹
  tl/2: 5.7 h
[27]; PO 8.06 mg/kg, SD-Rats
  AUC(0-12 h): 73945 ng · h · mI^−1
  AUC(0-Inf): 80286 ng · h · mI^−1
  F(0-8 h): 31.2%
  F(0-12 h): 37.7%
  F(0-Inf): 43.8%
  Kel: 0.1077 h⁻¹
  tl/2: 6.4 h
[27]; Sprague-Dawley, rat, plasma, IV 1.56 mg/kg, SD Rats
  Cmax: 34300 ng/mL
[27]; [32]
  Cmax: 6670 ng/mL
  Tmax: 2 h
[27]; rat, plasma, IV 1.56 mg/kg, SD Rats
  Vd: 0.6 L/kg
[28]; IV 2.00 mg/kg
  AUC(0-12 h): 1414 ng · h · mI^−1
  AUC(0-Inf): 1437 ng · h · mI^−1
  CLs: 23.3 mL/min/kg
  Cp0-exp: 3847 ng/mL
  Kel: 0.1360 h⁻¹
  tl/2: 5.1 h
[28]; beagle, plasma, IV 2.00 mg/kg
  Cmax: 3070 ng/mL
  Vd: 10.2 L/kg
[28]; beagle, plasma, PO 7.50 mg/kg
  Cmax: 1210 ng/mL
  Tmax: 1 h
MiaPaca xenografts; IV 50 and 60 mg/kg and IP 100 mg/kg
  tumor progression: significantly inhibited tumor progression
MiaPaca xenografts; oral 100 mg/kg QD×8 and 200 mg/kg QD×6
  tumor progression: significantly inhibited tumor progression
[29]
  tumor progression (FIG. 4A): significantly inhibited tumor progression
MDA-MB-231 xenografts
  tumor progression: significantly inhibited tumor progression
[30]
  body weight (FIG. 4B): not significantly altering body weight
[31]
  half life change on repeated dosing: about doubles
HUVEC cells
  concentration range inhibiting tube formation: 1 to 5 µM
